Where two headings read alike, the source gives them in different places. Values belong to the compound of their own block, whether it stands above or below them.
How the values were obtained:
[1] = tested on: Human tumor cell lines MCF-7 (breast adenocarcinoma); test: Cell-growth inhibition assay (MTT cell proliferation assay, 4 days); format: cell-based; conditions: MCF-7, 4 days incubation
Protocol: Cells were plated at a density of 5000 cells/well.
Results are gathered in table 3 hereinafter. The results are shown on a molar basis (IC50 values, in µM) as well as on a per-bisphosphonate basis, which is more logical when comparisons are to be made with the pure bisphosphonates.

[2] = Solubility in water (remark in the solid state NMR section); format: physicochemical
From the text: The broadening could be due either to the low crystallinity in Mo12(AlePy)4Pt4 and/or, a dynamic disorder, since we also observe a much less efficient CP transfer in CPMAS experiments when compared with Mo12(AlePy)4.

MCF-7 [3] = conditions: literature values, cited from earlier work
MCF-7 [4] = test: Cell growth "rescue" experiments with geranylgeraniol (GGOH); format: cell-based, Human
Protocol: Addition of geranylgeraniol (GGOH) was tested on Mo4Zol2Mn.
Protocol Cell growth "rescue" experiments with geranylgeraniol were carried out as described previously, and namely in Y. Zhang, et al J. Am. Chem. Soc. 2009, 131, 51.
An increase in the IC50 indicates a direct role for the bisphosphonate moiety in cell growth inhibition.

[5] = measurement conditions not strictly identical to Table 3, read-out: IC50
[6] = per bisphosphonate, read-out: IC50 per BP

Compound: NCCCC(O)(P(=O)(O)O)P(=O)(O)O [Ale, alendronate]
IC50 (MCF-7 [3]; [5]): 130 ± 2.2 µM
IC50 (MCF-7 [3]; [6]): 130 µM

Compound: Rb(NH4)4[(Mo2O6)2(O3PC(CH2C3H4N2)(O)PO3)2Mn].14H2O [Mo4Zol2Mn]
IC50 ([1]; molar basis, read-out: IC50): 1.3 ± 0.24 µM
IC50 ([1]; per-bisphosphonate basis, read-out: IC50 per BP): 2.6 ± 0.48 µM
IC50 (MCF-7 [4]; with addition of geranylgeraniol (GGOH), read-out: IC50 +GGOH): 7.6 µM
IC50 (MCF-7 [4]; without GGOH, read-out: IC50): 1.3 µM

Further lines, with some results ahead:

IC50 ([1]; molar basis, listed as Mn(II)Cl2, read-out: IC50): ~740 µM
IC50 ([1]; molar basis, read-out: IC50): 740 ± 140 µM
Compound: [Cl][Mn][Cl] [MnCl2]

solubility in water [2]: essentially insoluble in water
Compound: Na3{Na(Mo3O8)4[O3PCC3H6NH2CH2(C5H5N)(O)PO3]4} .25H20 [Mo12(AlePy)4]

IC50 ([1]; Homo sapiens, MCF7, 96 h, molar basis, read-out: IC50): 15 ± 2.6 µM
IC50 ([1]; Homo sapiens, MCF7, 96 h, per-bisphosphonate basis, read-out: IC50 per BP): 15 ± 2.6 µM
IC50 (MCF-7 [4]; Homo sapiens, MCF7, with addition of geranylgeraniol (GGOH), read-out: IC50 +GGOH): 48 µM
IC50 (MCF-7 [4]; Homo sapiens, MCF7, without GGOH, read-out: IC50): 15 µM
Compound: O=P(O)(O)C(O)(Cn1ccnc1)P(=O)(O)O [Zol, zoledronate]
IC50 (MCF-7 [3]; [5]): 7.7 ± 2.6 µM
IC50 (MCF-7 [3]; [6]): 7.7 µM

— EP3098228A1, “POLYOXOMOLYBDATE-BISPHOSPHONATE COMPLEX CONTAINING A HETEROMETALLIC ION DIFFERENT FROM MOLYBDENUM” (CENTRE NATIONAL DE LA RECHERCHE SCIENTIFIQUE, priority 2015, dated 2016)
